The record followed here is US20260217708A1, “FUSED BENZAZEPINE DERIVATIVES FOR USE IN THE TREATMENT OF CANCER AND EPILEPSY” (UCB BIOPHARMA SRL, priority 2023, published 2026).

Assay [1] addresses T1, system Xc^− (Homo sapiens, UniProt Q9UPY5).
T1 sequence (Q9UPY5 1-501): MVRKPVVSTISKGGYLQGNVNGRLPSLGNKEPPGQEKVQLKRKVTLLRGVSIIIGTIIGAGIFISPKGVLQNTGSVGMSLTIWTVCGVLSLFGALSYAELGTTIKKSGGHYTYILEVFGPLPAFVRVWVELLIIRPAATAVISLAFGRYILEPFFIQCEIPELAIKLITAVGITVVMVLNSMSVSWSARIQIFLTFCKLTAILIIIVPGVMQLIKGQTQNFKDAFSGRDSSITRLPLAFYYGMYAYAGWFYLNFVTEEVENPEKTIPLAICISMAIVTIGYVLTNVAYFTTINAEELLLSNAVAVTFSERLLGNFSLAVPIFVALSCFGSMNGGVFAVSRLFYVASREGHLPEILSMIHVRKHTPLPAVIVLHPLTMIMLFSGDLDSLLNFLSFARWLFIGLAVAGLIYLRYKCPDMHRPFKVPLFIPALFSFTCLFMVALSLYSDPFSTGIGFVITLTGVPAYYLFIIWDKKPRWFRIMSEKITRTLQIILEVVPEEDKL
T1 sequence (P08195 1-529 partner): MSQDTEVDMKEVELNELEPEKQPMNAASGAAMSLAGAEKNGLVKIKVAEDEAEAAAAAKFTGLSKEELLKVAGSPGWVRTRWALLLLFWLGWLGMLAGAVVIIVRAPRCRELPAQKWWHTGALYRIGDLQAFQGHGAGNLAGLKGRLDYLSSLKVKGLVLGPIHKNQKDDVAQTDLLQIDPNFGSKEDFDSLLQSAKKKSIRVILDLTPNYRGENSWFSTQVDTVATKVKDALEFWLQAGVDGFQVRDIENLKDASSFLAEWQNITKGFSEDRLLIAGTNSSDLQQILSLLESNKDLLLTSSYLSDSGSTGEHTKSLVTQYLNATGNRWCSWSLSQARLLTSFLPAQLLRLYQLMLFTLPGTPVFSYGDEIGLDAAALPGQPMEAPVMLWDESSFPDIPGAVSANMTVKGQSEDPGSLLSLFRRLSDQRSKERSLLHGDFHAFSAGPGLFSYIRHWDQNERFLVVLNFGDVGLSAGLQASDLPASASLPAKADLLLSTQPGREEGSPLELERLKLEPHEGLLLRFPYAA
As to the kind of experiment: Cystine-induced glutamate release assay. In kind it is cell-based. More on the design: endogenous in cells; host or cells: H4 cells. The conditions noted are these: H4 cells, sodium-free HEPES buffer, 50 μM L-Cystine, 2 hours, Amplex Red glutamate readout; read-out: pIC50 Cystine-induced glutamate release assay (converted). An outline of the steps: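 IC50 (reported as pIC50) normalized to DMSO 1% and Erastin 50 μM controls, from Amplex Red fluorescence of glutamate exported into supernatant. H4 cells were washed into sodium-free buffer to exclude EAAT transport, then given compound with 50 μM L-cystine for 2 h in the incubator.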

The target of assay [2] is T1, system Xc^−. Nature of the assay: [^14C]L-Cystine uptake assay. On the set-up: endogenous in cells; host or cells: H4 cells. In kind it is cell-based. The settings on record: H4 cells, sodium-free HEPES buffer, 0.5 μM L-[14C]Cystine and 4.5 μM L-Cystine, 1 hour at 37° C.; read-out: pIC50 [^14C] L-Cystine uptake assay (converted). The method, boiled down:
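Compound effect is given as pIC50, taken between controls of 1% DMSO and 50 μM Erastin. Human H4 cells were pretreated 15 min with compound in sodium-free buffer, then took up 0.5 μM [14C]cystine with 4.5 μM cold cystine for 1 hour at 37° C, read by scintillation proximity counting.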

For `O=C(CN1C(=O)Cc2cc(F)ccc2-c2c1cc(N1CC(F)(F)C1)nc2F)Nc1ccc(C(F)F)cc1` [#296, 2-[3-(3,3-difluoroazetidin-1-yl)-1,9-difluoro-6-oxo-7H-pyrido[4,3-d][3]benzazepin-5-yl]-N-[4-(difluoromethyl)phenyl]acetamide], the results for the IC50 at system Xc^− [1] and on system Xc^− [2] were 39.8 to 100 nM and 15.8 to 39.8 nM, respectively.

Take `COc1ccc2c(c1)N(CC(=O)Nc1ccc(Cl)c(F)c1)C(=O)C(C)c1ncccc1-2` (stereo not shown) [#306, N-(4-chloro-3-fluoro-phenyl)-2-(9-methoxy-5-methyl-6-oxo-5H-pyrido[2,3-d][1]benzazepin-7-yl)acetamide]: the IC50 on system Xc^− [1] is 15.8 to 39.8 nM; at system Xc^− [2], 39.8 to 100 nM.

`CC1C(=O)N(CC(=O)Nc2ccc(Cl)c(F)c2)c2cc(C#N)ccc2-c2cccnc21` (stereo not shown) [#311, N-(4-chloro-3-fluoro-phenyl)-2-(9-cyano-5-methyl-6-oxo-5H-pyrido[2,3-d][1]benzazepin-7-yl)acetamide]: the IC50 at system Xc^− [1] is under 15.8 nM; on system Xc^− [2], 39.8 to 100 nM.

In the case of `CC1C(=O)N(CC(=O)Nc2ccc(Cl)c(F)c2)c2cc(C3CC3)c(=O)n(C)c2-c2ccccc21` (stereo not shown) [#321, N-(4-chloro-3-fluoro-phenyl)-2-(3-cyclopropyl-1,7-dimethyl-2,6-dioxo-7H-pyrido[3,2-d][3]benzazepin-5-yl)acetamide], the IC50 on system Xc^− [1] and at system Xc^− [2] was 15.8 to 39.8 nM each time.

As for `CC1C(=O)N(CC(=O)Nc2ccc(C(F)F)cc2)c2cc(C3CC3)c(=O)n(C)c2-c2ccccc21` (stereo not shown) [#322, 2-(3-cyclopropyl-1,7-dimethyl-2,6-dioxo-7H-pyrido[3,2-d][3]benzazepin-5-yl)-N-[4-(difluoromethyl)phenyl]acetamide], the values for the IC50 on system Xc^− [1] and on system Xc^− [2] were 15.8 to 39.8 nM and 39.8 to 100 nM, respectively.

As for `O=C(CN1C(=O)Cc2ccccc2-c2c1cc(C(F)F)nc2Cl)Nc1ccc(C(F)F)cc1` [#339, 2-[1-chloro-3-(difluoromethyl)-6-oxo-7H-pyrido[4,3-d][3]benzazepin-5-yl]-N-[4-(difluoromethyl)phenyl]acetamide], the IC50 on system Xc^− [1] and on system Xc^− [2] was under 15.8 nM in each case.

As to `CC1C(=O)N(CC(=O)Nc2ccc(Cl)c(F)c2)c2cc(C(F)F)ccc2-c2cccnc21` (stereo not shown) [#341, N-(4-chloro-3-fluoro-phenyl)-2-[9-(difluoromethyl)-5-methyl-6-oxo-5H-pyrido[2,3-d][1]benzazepin-7-yl]acetamide], the figures for the IC50 at system Xc^− [1] and at system Xc^− [2] were 15.8 to 39.8 nM and 39.8 to 100 nM, respectively.

As for `CC1C(=O)N(CC(=O)Nc2ccc(Cl)c(F)c2)c2cc(CN3CC(C)(O)C3)ccc2-c2cccnc21` (stereo not shown) [#343, N-(4-chloro-3-fluoro-phenyl)-2-[9-[(3-hydroxy-3-methyl-azetidin-1-yl)methyl]-5-methyl-6-oxo-5H-pyrido[2,3d][1]benzazepin-7-yl]acetamide], the IC50 was 39.8 to 100 nM at system Xc^− [1] and 100 to 501 nM at system Xc^− [2].

Consider `CC1C(=O)N(CC(=O)Nc2ccc(Cl)c(F)c2)c2cc(CN3CC(F)(F)C3)ccc2-c2cccnc21` (stereo not shown) [#344, N-(4-chloro-3-fluoro-phenyl)-2-[9-[(3,3-difluoroazetidin-1-yl)methyl]-5-methyl-6-oxo-5H-pyrido[2,3-d][1]benzazepin-7-yl]acetamide], for which the IC50 on system Xc^− [1] is 39.8 to 100 nM; at system Xc^− [2], 100 to 501 nM.

As for `CC1C(=O)N(CC(=O)Nc2ccc(Cl)c(F)c2)c2cc(C3CN(CC(F)F)C3)cc(F)c2-c2cccnc21` (stereo not shown) [#345, N-(4-chloro-3-fluoro-phenyl)-2-[9-[1-(2,2-difluoroethyl)azetidin-3-yl]-11-fluoro-5-methyl-6-oxo-5H-pyrido[2,3-d][1]benzazepin-7-yl]acetamide], the IC50 on system Xc^− [1] and at system Xc^− [2] was 15.8 to 39.8 nM each time.

As to `CC1C(=O)N(CC(=O)Nc2ccc(C(F)F)cc2)c2cc(C3CC3C(F)(F)F)cc(F)c2-c2cccnc21` (stereo not shown) [#346, N-[4-(difluoromethyl)phenyl]-2-[11-fluoro-5-methyl-6-oxo-9-[2-(trifluoromethyl)cyclopropyl]-5H-pyrido[2,3-d][1]benzazepin-7-yl]acetamide], the IC50 on system Xc^− [1] and at system Xc^− [2] was 39.8 to 100 nM throughout.

In the case of `CC1C(=O)N(CC(=O)Nc2ccc(C(F)F)cc2)c2cc(C3CC3)nc(Cl)c2-c2cccnc21` (stereo not shown) [#347, 2-(3-chloro-5-cyclopropyl-10-methyl-9-oxo-4,8,12-triazatricyclo[9.4.0.0^2,7]pentadeca-1(15),2,4,6,11,13-hexaen-8-yl)-N-[4-(difluoromethyl)phenyl]acetamide], the IC50 at system Xc^− [1] is 39.8 to 100 nM; at system Xc^− [2], 15.8 to 39.8 nM.

Turning to `CCn1c2c(cc(C)c1=O)N(CC(=O)Nc1ccc(Cl)c(F)c1)C(=O)C(C)c1ccccc1-2` (stereo not shown) [#349, N-(4-chloro-3-fluoro-phenyl)-2-(1-ethyl-3,7-dimethyl-2,6-dioxo-7H-pyrido[3,2-d][3]benzazepin-5-yl)acetamide], the IC50 on system Xc^− [1] was 15.8 to 39.8 nM; on system Xc^− [2], under 15.8 nM.

As to `Cc1cc2c(n(C)c1=O)-c1ccccc1CC(=O)N2CC(=O)Nc1ccc(Cl)c(F)c1` [#350, N-(4-chloro-3-fluoro-phenyl)-2-(1,3-dimethyl-2,6-dioxo-7H-pyrido[3,2-d][3]benzazepin-5-yl)acetamide], the IC50 at system Xc^− [1] and on system Xc^− [2] was 15.8 to 39.8 nM each time.

For the compound `CC1C(=O)N(CC(=O)Nc2ccc(Cl)c(F)c2)c2ccn(C)c(=O)c2-c2ccccc21` (stereo not shown) [#351, N-(4-chloro-3-fluoro-phenyl)-2-(2,7-dimethyl-1,6-dioxo-7H-pyrido[4,3-d][3]benzazepin-5-yl)acetamide], the IC50 at system Xc^− [1] and on system Xc^− [2] was 39.8 to 100 nM each time.

Regarding `Cc1cc2c(c(=O)n1C)-c1ccc(Cl)cc1C(C)C(=O)N2CC(=O)Nc1ccc(Cl)c(F)c1` (stereo not shown) [#352, N-(4-chloro-3-fluoro-phenyl)-2-(9-chloro-2,3,7-trimethyl-1,6-dioxo-7H-pyrido[4,3-d][3]benzazepin-5-yl)acetamide], the values for the IC50 at system Xc^− [1] and on system Xc^− [2] were 15.8 to 39.8 nM and under 15.8 nM, respectively.

Take `Cc1cc2c(n(C)c1=O)-c1ccnn1C(C)C(=O)N2CC(=O)Nc1ccc(Cl)c(F)c1` (stereo not shown) [#353, N-(4-chloro-3-fluoro-phenyl)-2-(7,12,14-trimethyl-8,13-dioxo-5,6,9,14-tetrazatricyclo[8.4.0.0^2,6]tetradeca-1(10),2,4,11-tetraen-9-yl)acetamide]: the IC50 at system Xc^− [1] was 15.8 to 39.8 nM; at system Xc^− [2], 39.8 to 100 nM.

As to `Cc1cc2c(n(C)c1=O)-c1ccc(F)cc1C(C)C(=O)N2CC(=O)Nc1ccc(Cl)c(F)c1` (stereo not shown) [#354, N-(4-chloro-3-fluoro-phenyl)-2-(9-fluoro-1,3,7-trimethyl-2,6-dioxo-7H-pyrido[3,2-d][3]benzazepin-5-yl)acetamide], the IC50 on system Xc^− [1] was 15.8 to 39.8 nM; at system Xc^− [2], under 15.8 nM.

For `Cc1c2c(cc(=O)n1C)N(CC(=O)Nc1ccc(Cl)c(F)c1)C(=O)C(C)c1ccccc1-2` (stereo not shown) [#355, N-(4-chloro-3-fluoro-phenyl)-2-(1,2,7-trimethyl-3,6-dioxo-7H-pyrido[3,4-a][3]benzazepin-5-yl)acetamide], the IC50 is 15.8 to 39.8 nM on system Xc^− [1] and 39.8 to 100 nM on system Xc^− [2].

In the case of `Cc1cc2c(c(F)n1)-c1ccn(C)c(=O)c1C(C)C(=O)N2CC(=O)Nc1ccc(Cl)c(F)c1` (stereo not shown) [#356, N-(4-chloro-3-fluoro-phenyl)-2-(3-fluoro-5,10,13-trimethyl-9,12-dioxo-4,8,13-triazatricyclo[9.4.0.0^2,7]pentadeca-1(11),2,4,6,14-pentaen-8-yl)acetamide], the IC50 at system Xc^− [1] and at system Xc^− [2] was 39.8 to 100 nM in each case.
